US5849760A, “2-(arylalkenyl)azacycloalkane derivatives as ligands for sigma receptors” (Institut de Recherche Jouveinal, priority 1993, dated 1998)
Counter-ions that a name gives are not always drawn.

Assays:
[1] = test system: cysteamine-induced gastroduodenal ulcers; test: Cysteamine-induced gastroduodenal ulcer; assay type: in vivo, male Sprague-Dawley rats; settings: I.P. route, 30 min before ulcerogenic agent, dose inhibiting 50% of ulcers; for ED50: Rattus norvegicus, ip, 18 h
Description: The activity of the compounds of the invention with respect to the gastrointestinal tract was shown in the rat by their ability to inhibit gastroduodenal ulcers induced by the administration of cysteamine. In terms of practical methodology, the study is performed according to the method described by Robert, A., et al., in Digestion, 1974, Vol. 11, pp. 199-214, in groups of male Sprague-Dawley rats with an average weight of 200 g, to which a cysteamine hydrochloride solution is administered by subcutaneous injection in a dose of 400 mg/kg. The test compounds are administered to the animals 1 h or 30 min, respectively, before the ulcerogenic agent, depending on whether the oral or intraperitoneal route is used. Eighteen hours later, the rats are sacrificed by elongation; the stomach and duodenum are removed, rinsed with physiological salt solution, and pinned to a card. The antropyloroduodenal region is examined for ulcers, and the area of the ulcers, expressed in mm^2, is determined by multiplying the two main perpendicular axes of the lesion. Statistical analysis of the results is performed by means of Student's t-test for the ulcerated areas in comparison with a control group. The results obtained after intraperitoneal administration are presented in Table 3 and are expressed as the ED50, which is the effective dose (mg/kg) of compound inhibiting 50% of the cysteamine-induced ulcers. Igmesine is presented by way of comparison.

sigma receptors = target: T1, sigma receptors (Rattus norvegicus, UniProt Q9R0C9); test: In vitro binding to sigma receptors with (+)[^3 H]SKF10.047; settings: for IC50, haloperidol / IC50, example: ratio to haloperidol, second series, rat brain membranes, [^3 H]SKF10.047; for IC50: rat brain membrane, (+)[^3 H]SKF10.047
T1 construct: a preparation of rat brain membrane; from tissue; host or cells: rat brain membranes
T1 sequence (Q9R0C9 whole entry): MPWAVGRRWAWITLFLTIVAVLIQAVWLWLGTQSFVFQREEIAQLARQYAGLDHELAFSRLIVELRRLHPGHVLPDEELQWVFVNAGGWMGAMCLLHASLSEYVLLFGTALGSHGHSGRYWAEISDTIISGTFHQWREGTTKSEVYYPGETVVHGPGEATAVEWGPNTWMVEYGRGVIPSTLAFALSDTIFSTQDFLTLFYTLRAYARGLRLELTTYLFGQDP
Description: Experiments on binding to sigma and PCP receptors are performed with the ligands (+)[^3 H]SKF10.047 and [^3 H]TCP, respectively, by the technique described by Largent, B. L., et al. in J. Pharmacol. Exp. Ther., 1986, Vol. 238, pp. 739-748. The principle of this technique is to place in competition the affinity of the test substance and that of a radioactive ligand specific for the receptor being studied.
The results are expressed as the IC50 of the test substance, which is the concentration at which the tritiated ligand is displaced from 50% of its binding sites in the membrane preparation used.

PCP receptors = test: In vitro binding to PCP receptors with [^3 H]TCP; settings: rat brain membrane
Description: The test of binding to phenylcyclidine receptors (PCP receptors), performed in the presence of a ligand specific for PCP receptors, [^3 H]TCP, was used to investigate any undesirable interaction of the compounds of the invention with these receptors.
The principle of this technique is to place in competition the affinity of the test substance and that of a radioactive ligand specific for the receptor being studied.
The technique consists in incubating a preparation of rat brain membrane loaded with the labeled ligand specific for the receptor under study in solutions of varying concentration of the test substance. After filtration, one measures the radioactivity of the solution, which represents the displacement of this labeled ligand by the test substance.

SMILES	IC50, haloperidol / IC50, example (sigma receptors)	ED50 [1]	other results
C(=C\c1ccccc1)/CC1CCCN1CC1CC1 (single isomer, unassigned; (-)) [Example 1.3, (-)-(E)-2-cinnamyl-1-cyclopropylmethylpyrrolidine]	1.6		ED50, cysteamine-induced ulcer ([1]; 1080 min): < 0.100 mg/kg
C(=C\c1ccccc1)/CC1CCCCN1CC1CC1 (single isomer, unassigned; (+)) [Example 2A.2, (+)-(E)-2-cinnamyl-1-(cyclopropylmethyl)piperidine]		< 0.1 mg/kg	
C(=C/c1ccccc1)/CC1CCCN1CC1CC1 (stereo not drawn) [Example 2K, (Z)-2-cinnamyl-1-cyclopropylmethylpyrrolidine]	4.3		
CCC(C/C=C/c1ccccc1)(c1ccccc1)N(C)CC1CC1 (single isomer, unassigned; (+)) [Igmesine, (+)-N-(cyclopropylmethyl)-1-ethyl-N-methyl-1,4-diphenyl-3-butene-1-ylaminehydrochloride, reference compound]		5.95 mg/kg	
C(=C\c1ccccc1)/CC1CCCN1CC1CC1 (racemic) [Example 1.1, (±)-(E)-2-cinnamyl-1-cyclopropylmethylpyrrolidine]		0.185 mg/kg	IC50 (PCP receptors): > 10000 nM; IC50 (sigma receptors): 34.2 nM
FC(F)(F)c1ccc(/C=C/CC2CCCCN2CC2CC2)cc1 (stereo not drawn) [Example 2G, (E)-2-(p-trifluoromethylcinnamyl)-1-cyclopropylmethylpiperidine]	0.8		
C(=C\c1ccccc1)/CC1CCCCN1CC1CC1 (stereo not drawn) [Example 2A.1, (E)-2-cinnamyl-1-cyclopropylmethylpiperidine]		0.1 mg/kg	
C(=C\c1ccccc1)/CC1CCCCN1CC1CCC1 (stereo not drawn) [Example 2A.4, (E) -2-cinnamyl-1-cyclobutylmethylpiperidine]	2.3		
C(=C\c1ccccc1)/CC1CCCN1CC1CCC1 (stereo not drawn) [Example 1.4, (E)-2-cinnamyl-1-cyclobutylmethylpyrrolidine]		0.137 mg/kg	IC50 (PCP receptors): > 10000 nM; affinity for sigma receptors (sigma receptors; in words): strong affinity for sigma receptors; IC50 (sigma receptors): 4.52 nM
C(=C/c1ccccc1)/CC1CCCCN1CC1CC1 (stereo not drawn) [Example 2A.6, (Z)-2-cinnamyl-1-cyclopropylmethylpiperidine]		< 0.1 mg/kg	IC50 (PCP receptors): > 10000 nM; IC50 (sigma receptors): 34.3 nM
C(=C\c1ccccc1)/CC1CCCN1CCc1ccccc1 (stereo not drawn) [Example 1.6, (E)-2-cinnamyl-1-phenethylpyrrolidine]	1.3		
C(=C\c1ccccc1)/CC1CCCN1CC1CC1 (single isomer, unassigned; (+)) [Example 1.2, (+)-(E)-2-cinnamyl-1-cyclopropylmethylpyrrolidine]		< 0.1 mg/kg	
C(=C\c1ccccc1)/CC1CCCCN1CCc1ccccc1 (stereo not drawn) [Example 2A.5, (E)-2-cinnamyl-1-(phenethyl)piperidine]	1.0		
Fc1ccc(/C=C\CC2CCCCN2CC2CC2)cc1 (stereo not drawn) [Example 2B.2, (Z)-2-(p-fluorocinnamyl)-1-cyclopropylmethylpiperidine]	1.6		
C(=C\c1ccccc1)/CC1CCCCN1CC1CC1 (single isomer, unassigned; (-)) [Example 2A.3, (-)-(E)-2-cinnamyl-1-(cyclopropylmethyl)piperidine]	1.4		
Fc1ccc(/C=C/CC2CCCN2CC2CC2)cc1 (stereo not drawn) [Example 2L, (E)-2-(p-fluorocinnamyl)-1-cyclopropylmethylpyrrolidine]	1.1		
